{"source": "paper PMC4641600", "about": "“Novel Activities of Select NSAID R-Enantiomers against Rac1 and Cdc42 GTPases” (PLoS ONE, 2015)", "key": {"[1]": {"molecular_target": "Rac1 wt (Homo sapiens, UniProt P63000)", "test": "Dose response, BODIPY-GTP binding", "details": "10 nM to 100 µM"}, "[2]": {"molecular_target": "Rac1Q61L activating mutant (Homo sapiens, UniProt P63000, Q61L)", "test": "Dose response, BODIPY-GTP binding", "details": "10 nM to 100 µM"}, "[3]": {"molecular_target": "Cdc42 wt (Homo sapiens, UniProt P60953)", "sequence (P60953 whole entry)": "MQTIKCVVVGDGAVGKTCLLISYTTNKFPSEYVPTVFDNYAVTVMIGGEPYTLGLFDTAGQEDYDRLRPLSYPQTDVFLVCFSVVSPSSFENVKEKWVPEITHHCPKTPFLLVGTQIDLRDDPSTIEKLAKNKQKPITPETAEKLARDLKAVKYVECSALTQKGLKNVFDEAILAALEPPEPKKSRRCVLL", "test": "Dose response, BODIPY-GTP binding", "details": "10 nM to 100 µM"}, "[4]": {"molecular_target": "Cdc42Q61L activating mutant (Homo sapiens, UniProt P60953, Q61L)", "sequence (P60953 whole entry Q61L)": "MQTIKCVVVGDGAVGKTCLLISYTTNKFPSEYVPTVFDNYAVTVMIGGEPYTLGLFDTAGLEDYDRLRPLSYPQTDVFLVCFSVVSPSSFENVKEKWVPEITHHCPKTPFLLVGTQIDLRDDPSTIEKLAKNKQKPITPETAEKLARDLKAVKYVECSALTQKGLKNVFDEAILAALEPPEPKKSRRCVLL", "test": "Dose response, BODIPY-GTP binding"}, "[5]": {"molecular_target": "H-Ras wt (Homo sapiens, UniProt P01112)", "test": "Dose response, BODIPY-GTP binding", "details": "10 nM to 100 µM", "method": "(§1) For multiplex analyses of small GTPases, 4 μm diameter glutathione-beads (GSH-beads) distinguished by seven different intensities of red fluorescence were used according to our previously described protocols. The GST-GTPases included the following eight Ras-related small GTPases: Rab2 wt, Rab7 wt, Cdc42 wt, Cdc42Q61L activating mutant, H-Ras wt, H-RasG12V, Rac1 wt and Rac1Q61L activating mutant. Briefly, Prestwick Chemical Library® compounds were tested at 10 μM compound and 1% DMSO final concentrations. After a 10 min pre-incubation with the compound BODIPY- FL-GTP (100 nM final) was added to each well and bead associated fluorescence was measured. Sample analysis was conducted with a HyperCyt® high throughput flow cytometry platform. Flow cytometric light scatter at 488 nm and fluorescence emission at 530 +/− 20 nm (FL1) and 665 +/− 10 nm (FL8) were collected on a Cyan ADP flow cytometer (Beckman Coulter, Fullerton, CA). IDLQuery software was used to determine the compound activity in each well. Gating based on forward scatter (FS) and side scatter (SS) parameters was used to identify singlet bead populations. Gating based on FL8 emission distinguishes the beads coated with different proteins, and the median FL1 fluorescence per bead population were calculated. A compound was considered a “potential active” if the change in BODIPY-FL-GTP binding differed greater than 20% from that measured in DMSO treated controls.\n(§2) Test compounds identified for follow-up after the primary screen were tested at dilutions ranging from 10 nM to 100 μM final concentration against individual GTPases in multiplex and single-plex assays. Compounds tested in dose response assays were serially diluted 1:3 a total of eight times from a starting concentration of 10 mM giving a 9-point dilution series in DMSO.\n(§3) bConfirmatory screens entailed dose response assays conducted in a multiplex format with eight GTPases tested as for primary screen. BODIPY-GTP-binding activity was\n(§4) measured in the presence of 10 nM to 100 µM of each of 11 test compounds (4 primary screen hits and 7 additional NSAIDs considered to have chemical similarity to GTPase\n(§5) active compounds). GST-GFP coated beads served as a control to detect non-specific dissociation or denaturation caused by compound addition–none of the tested NSAIDs had\n(§6) any effect on bead-GST-protein binding. EC50 values were determined using Prism to determine dose response fits as shown in Figure 1 of main text; fits have R2 > 0.9. Active\n(§7) compounds based on same definition used as in primary screena. […]"}, "[6]": {"molecular_target": "H-RasG12V (Homo sapiens, UniProt P01112, G12V)", "test": "Dose response, BODIPY-GTP binding", "details": "10 nM to 100 µM", "method": "as §1, §2, §3, §4, §5, §6, §7\n(§8) ‡A well-characterized selective Cdc42 inhibitor served as a positive control."}, "[7]": {"molecular_target": "Rab2 (Homo sapiens, UniProt P61019)", "sequence (P61019 whole entry, species assumed)": "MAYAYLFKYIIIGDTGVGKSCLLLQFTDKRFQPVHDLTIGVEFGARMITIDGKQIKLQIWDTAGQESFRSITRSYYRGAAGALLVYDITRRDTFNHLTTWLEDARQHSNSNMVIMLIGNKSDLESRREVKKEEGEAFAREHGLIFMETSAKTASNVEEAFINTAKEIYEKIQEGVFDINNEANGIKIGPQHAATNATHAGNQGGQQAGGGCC", "test": "Dose response, BODIPY-GTP binding", "details": "10 nM to 100 µM"}, "[8]": {"molecular_target": "Rab7 (Homo sapiens, UniProt P51149)", "sequence (P51149 whole entry, species assumed)": "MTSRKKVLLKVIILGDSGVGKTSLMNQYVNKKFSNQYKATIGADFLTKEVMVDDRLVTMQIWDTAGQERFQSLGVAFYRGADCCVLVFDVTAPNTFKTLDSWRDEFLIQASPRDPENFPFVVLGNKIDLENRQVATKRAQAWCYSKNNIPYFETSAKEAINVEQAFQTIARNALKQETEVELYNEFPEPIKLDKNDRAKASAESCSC", "test": "Dose response, BODIPY-GTP binding", "details": "10 nM to 100 µM"}, "[9]": {"test_system": "Ras-related GTPases", "test": "Confirmatory dose response assays on eight Ras-related GTPases", "assay_type": "binding", "method": "as §1, §2, §3, §4, §5, §6, §7, §8"}, "[10]": {"molecular_target": "T1, Rac1 (Homo sapiens, UniProt P63000)", "T1 construct": "endogenous in cells; host or cells: HeLa", "test": "G-trap flow cytometric effector binding assay, HeLa cells", "assay_type": "cell-based"}, "[11]": {"molecular_target": "T2, Cdc42 (Homo sapiens, UniProt P60953)", "T2 construct": "endogenous in cells; host or cells: HeLa", "T2 sequence (P60953 whole entry)": "as the sequence (P60953 whole entry) above", "test": "G-trap flow cytometric effector binding assay, HeLa cells", "assay_type": "cell-based"}, "[12]": {"molecular_target": "T3, Rac1 (Mus musculus, UniProt P63001)", "T3 construct": "endogenous in cells; host or cells: Swiss 3T3", "test": "GLISA, Swiss 3T3 cells", "assay_type": "cell-based"}, "[13]": {"molecular_target": "T4, Cdc42 (Mus musculus, UniProt P60766)", "T4 construct": "endogenous in cells; host or cells: Swiss 3T3", "T4 sequence (P60766 whole entry)": "as the sequence (P60953 whole entry) above", "test": "GLISA, Swiss 3T3 cells", "assay_type": "cell-based", "details": "Swiss-3T3; at 300 µM"}, "[14]": {"molecular_target": "T5, human COX-2 (Homo sapiens, UniProt P35354)", "T5 construct": "purchased CEREP Laboratories (contract assay); host or cells: Sf-9", "T5 sequence (P35354 18-604)": "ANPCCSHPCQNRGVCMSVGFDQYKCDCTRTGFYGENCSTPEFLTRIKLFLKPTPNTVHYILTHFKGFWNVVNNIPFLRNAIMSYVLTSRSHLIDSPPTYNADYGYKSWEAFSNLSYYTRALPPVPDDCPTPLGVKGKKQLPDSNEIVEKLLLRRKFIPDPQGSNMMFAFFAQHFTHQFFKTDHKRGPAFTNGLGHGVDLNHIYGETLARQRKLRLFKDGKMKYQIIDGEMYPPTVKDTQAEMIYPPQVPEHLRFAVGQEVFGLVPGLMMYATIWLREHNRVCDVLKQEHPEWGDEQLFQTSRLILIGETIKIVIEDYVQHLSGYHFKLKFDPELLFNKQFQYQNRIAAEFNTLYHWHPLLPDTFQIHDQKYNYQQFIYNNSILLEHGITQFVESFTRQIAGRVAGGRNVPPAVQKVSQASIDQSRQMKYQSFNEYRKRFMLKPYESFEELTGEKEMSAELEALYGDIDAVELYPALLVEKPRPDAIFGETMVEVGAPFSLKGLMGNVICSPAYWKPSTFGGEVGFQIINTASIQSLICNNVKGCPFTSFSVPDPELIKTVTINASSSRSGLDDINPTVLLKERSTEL", "test": "Cyclooxygenase assay (CEREP), PGE2 formation", "assay_type": "biochemical", "details": "recombinant enzyme, 4 μM arachidonic acid"}, "[15]": {"test_system": "Tiam1 membrane localization", "test": "Tiam1 immunolocalization, OvCa433 cells", "assay_type": "cell-based, human", "method": "OvCa433 were plated on coverslips, treated with 300 μM NSAIDs for 1 h, fixed with 3% paraformaldehyde and immunostained for Rac1 or Tiam1. Actin was visualized with rhodamine phalloidin from Invitrogen (F432). Cells were imaged on a Zeiss LSM510 using a 63x objective and quantified using Image J.\nRac1 and Tiam1 antibodies were confirmed in our hands to recognize single protein species of the predicted molecular weight by immunoblot."}, "[16]": {"details": "typical oral dosing (S-Naproxen 500 mg; 6-MNA 750-20000 mg of nabumetone); ref Roche Investigator’s brochure, 9, 10, 17-19, 21, 23; cited from earlier work"}}, "data": [{"compound": "COc1ccc2cc(CC(=O)O)ccc2c1", "note": "[6-MNA, 6-methoxy-2-napthalene acetic acid]", "values": [{"measurement": "Rac1 wt EC50", "setting": "[1]", "result": "inactive"}, {"measurement": "Rac1 (act) EC50", "setting": "[2]", "result": "inactive"}, {"measurement": "Cdc42 wt EC50", "setting": "[3]", "result": "inactive"}, {"measurement": "activity against the constitutively active Cdc42 mutant", "setting": "[4]", "result": "weak activity"}, {"measurement": "EC50", "setting": "[4]; 10 nM to 100 µM, read-out: Cdc42 (act) EC50", "result": 12.3, "unit": "µM"}, {"measurement": "H-Ras wt EC50", "setting": "[5]", "result": "inactive"}, {"measurement": "H-Ras (act) EC50", "setting": "[6]", "result": "inactive"}, {"measurement": "Rab2 EC50", "setting": "[7]", "result": "inactive"}, {"measurement": "Rab7 EC50", "setting": "[8]", "result": "inactive"}, {"measurement": "activity against the GTPases in confirmatory dose response assays (words)", "setting": "[9]; 10 nM to 100 µM", "result": "lacked activity"}, {"measurement": "activity against the GTPases in confirmatory dose response assays (words)", "setting": "[9]; 10 nM to 100 μM, listed as 6MNA", "result": "inactive"}, {"measurement": "effect", "setting": "[9]; at 0.1 mM, against all GTPases", "result": "less than 20%"}, {"measurement": "fold lower potency than R-naproxen, Rac1", "setting": "[10]", "result": "up to 6 fold"}, {"measurement": "fold lower potency than R-naproxen, Cdc42", "setting": "[11]", "result": 3, "unit": "fold"}, {"measurement": "EGF-mediated Rac1 activation", "setting": "[12]; 300 μM, 15 min or 1 h (either time point)", "result": "no inhibitory effect"}, {"measurement": "inhibition at 300 µM", "setting": "[12]; Swiss-3T3, at 300 µM", "result": 0, "unit": "%"}, {"measurement": "inhibition at 300 µM", "setting": "[13]", "result": 0, "unit": "%"}, {"measurement": "IC50", "setting": "[14]", "result": "> 100", "unit": "µM"}, {"measurement": "Tiam1 membrane localization", "setting": "[15]; 300 μM", "result": "only slightly reduced"}, {"measurement": "Tiam1 GEF PM localiz.", "setting": "[15]; immunofluorescence quantified using ImageJ", "result": 73, "unit": "%"}, {"measurement": "Serum Cmax", "setting": "[16]", "result": 41200, "unit": "ng/mL"}]}]}
